Reference: article PMC6964649, “Light-controllable dithienylethene-modified cyclic peptides: photoswitching the in vivo toxicity in zebrafish embryos” (Beilstein Journal of Organic Chemistry, 2020)
Values joined by “and” are separate entries in the source; they are usually repeats but may differ in a detail not shown here. Equal values may be shown once. Marks after values point to notes of the source that are not given here. Starred links: 1 amine or outer side, 2 acyl side, 3 side chain; linkers in the order of their positions; H or OH if unused. Positions of bridges follow the written chain, without caps; N, C: chain ends. Non-standard residues stand in square brackets, D forms with d. Residues, ends and D or L forms follow the SMILES beside them. *: point of attachment. X2 = Cc1sc(C(=O)[C@@H]2CCCN2[*:2])cc1C1=C(c2cc(C(=O)[*:1])sc2C)CCC1; Leu(3R-OH) = CC(C)[C@@H](O)[C@H](N)C(=O)O; NMeL = CN[C@@H](CC(C)C)C(=O)O; Isobutyryl = CC(C)C(=O)*; Orn = NCCC[C@H](N)C(=O)O; Dab = NCC[C@H](N)C(=O)O; NHiPr = CC(C)N*

Key:
D. rerio embryos [1] = assay: D. rerio embryotoxicity assay, direct application of ring-open photoform; assay type: in vivo, Danio rerio; conditions: direct application of 1 or ring-open photoform, zebrafish embryos at 3 dpf, final DMSO 0.2%, ambient light, value ± STD; for LD50 (open)^1h: 1 h incubation, 12–15 or 18–20 embryos; for LD50 (open)^3h: 3 h incubation; for LD50 (open)^24h: 24 h incubation
Method: (§1) To establish the assay for screening the photoswitchable peptides, we first studied the toxicity of our prototype 2 by varying the assay conditions. The parent peptide GS 1 was used as a control. […] We measured the doses causing the death of 50% embryos (LD50). We tested two different assay variations: in one version, the LD50(open) was determined after direct application of 1 or of the ring-open form of 2. In the other variant, the photoswitchable peptide was applied in the ring-closed photoform in the darkness, its LD50(closed) was recorded, and then in situ illumination (“photoactivation”) was applied to switch into the ring-open photoform and obtain the respective LD50(opened) values (see Figure 2 for the study design and the killing curves).
(§2) Figure 2 Two versions of the D. rerio embryotoxicity assay for DAE-modified peptides: timelines, peptide photostates, ages of larvae, and definitions of the measured characteristics. (A) Direct application of the non-photoswitchable parent GS 1 or of the ring-open photoform of our prototype 2, and the corresponding killing curves for 1 (C, top, black) and 2 (C, bottom, red). (B) “Photoactivation” assay: initial application of the ring-closed photoform, incubation in darkness, followed by in situ photoconversion into the ring-open(ed) photoform, with the corresponding killing curves for 1 (D, top) and 2 (D, bottom, green for ring-closed, red for ring-open isomers). The latter panel illustrates the “phototherapeutic safety window” (green arrow) as the difference in toxicity between the ring-closed and the ring-open isomers upon photoactivation.
(§3) Each time, 12–15 or 18–20 zebrafish embryos at 3 dpf were treated by applying the corresponding peptide dissolved in dimethyl sulfoxide (final dimethyl sulfoxide concentration was 0.2%). Double-concentrated peptide stock solutions (64–512 µg/mL) were prepared by weighing lyophilized peptides, dissolving in 10% dimethyl sulfoxide and constructing two-fold dilution series with ten–eleven dilution steps. In the photoconversion experiments, in order to prevent spontaneous photoswitching of the ring-closed peptides by vis light, zebrafish embryos and peptides were kept in the dark before the first readout, and the vials were sealed to avoid evaporation of the embryonic medium (E3) at prolonged incubation times. After the first screen, without exchanging any solution, the vials with embryos and ring-closed photoforms were exposed to intense illumination for 10 min (LUMATEC Superlite 410 light source, λ = 570 nm, irradiance approximately 20 mW/cm^2). Mortality was then determined under ambient light conditions at 1 h and 24 h after the illumination procedure.

D. rerio embryos [2] = assay: D. rerio embryotoxicity "photoactivation" assay (ring-closed photoform in darkness, then in situ photoconversion); assay type: in vivo, Danio rerio; conditions: for LD50 (opened)^1h / LD50 (opened)^24h: after 24 h with ring-closed form in dark, in situ illumination 10 min, λ = 570 nm, approx. 20 mW/cm^2; for LD50 (opened)^1h: mortality 1 h after illumination, embryos 4 dpf; for LD50 (opened)^24h: mortality 24 h after illumination, embryos 5 dpf at readout; for LD50(closed)^24h/LD50(open)^24h ratio: phototherapeutic safety window, ring-closed 24 h LD50 (dark) divided by ring-open 24 h LD50 (direct application); for LD50 (closed)^24h: ring-closed photoform applied to embryos at 3 dpf, 24 h in the dark
Method: as §1, §2, §3

[3] = sealed vials, E3 medium, 0.2% DMSO, value ± STD

SMILES | LD50 (open)^1h (D. rerio embryos [1]) | LD50 (open)^3h (D. rerio embryos [1]) | LD50 (open)^24h (D. rerio embryos [1]) | LD50 (opened)^1h (D. rerio embryos [2]; value ± STD) | LD50 (opened)^24h (D. rerio embryos [2]; value ± STD) | LD50(closed)^24h/LD50(open)^24h ratio (D. rerio embryos [2]) | LD50 (closed)^24h (D. rerio embryos [2]; [3]) | LD50 (closed)^24h (D. rerio embryos [2]; measurement performed once, STD not calculated)
CC(C)C[C@@H]1NC(=O)[C@H](CCCN)NC(=O)[C@H](C(C)C)NC(=O)[C@@H]2CCCN2C(=O)[C@@H](Cc2ccccc2)NC(=O)[C@H](CC(C)C)NC(=O)[C@H](CCCN)NC(=O)[C@H](C(C)C)NC(=O)[C@@H]2CCCN2C(=O)[C@@H](Cc2ccccc2)NC1=O [Peptide 1, gramicidin S, reference compound] (cyclo(L[dF]PV[Orn]L[dF]PV[Orn])) | 2.8 ± 2.7 µg/mL | 2.0 ± 3.0 µg/mL | 2.4 ± 0.2 µg/mL | – | – | – | – | –
Cc1sc2cc1C1=C(CCC1)c1cc(sc1C)C(=O)[C@@H]1CCCN1C(=O)[C@H](C)NC(=O)[C@H](CCCN)NC(=O)[C@H](C(C)C)NC(=O)[C@@H]1CCCN1C(=O)[C@@H](Cc1ccccc1)NC(=O)[C@H](CC(C)C)NC(=O)[C@H](CCCN)NC(=O)[C@H](C(C)C)NC2=O [Peptide 3] | 9.3 ± 7.8 µg/mL | 4.8 ± 3.9 µg/mL | 4.7 ± 0.1 µg/mL | 9.5 ± 1.3 µg/mL | 6.2 ± 0.6 µg/mL | 6.6 | 31.1 ± 4.2 µg/mL | –
Cc1sc2cc1C1=C(CCC1)c1cc(sc1C)C(=O)[C@@H]1CCCN1C(=O)[C@H](C)NC(=O)[C@H](CCCN)NC(=O)[C@H](C(C)C)NC(=O)[C@@H]1CCCN1C(=O)[C@@H](Cc1ccccc1)NC(=O)[C@H](CC(C)C)NC(=O)[C@H](CCCN)NC(=O)[C@H](C)NC2=O [Peptide 4] (A[Orn]L[dF]PV[Orn]A; linker N-C via X2) | 69.8 ± 10.5 µg/mL | 40.6 ± 11.2 µg/mL | 19.0 ± 1.3 µg/mL | 51.0 ± 7.7 µg/mL | 12.9 ± 1.9 µg/mL | 10.4 | – | –
Cc1sc2cc1C1=C(CCC1)c1cc(sc1C)C(=O)[C@@H]1CCCN1C(=O)[C@H](CC(C)C)NC(=O)[C@H](CCCN)NC(=O)[C@H](C(C)C)NC(=O)[C@@H]1CCCN1C(=O)[C@@H](Cc1ccccc1)NC(=O)[C@H](CC(C)C)NC(=O)[C@H](CCCN)NC(=O)[C@H](CCCN)NC2=O [Peptide 5] | 4.8 ± 2.2 µg/mL | 2.8 ± 1.9 µg/mL | 3.3 ± 0.7 µg/mL | 8.1 ± 1.0 µg/mL | 5.3 ± 0.5 µg/mL | 2.5 | 8.1 ± 1.0 µg/mL | –
Cc1sc2cc1C1=C(CCC1)c1cc(sc1C)C(=O)[C@@H]1CCCN1C(=O)[C@H](C(C)C)NC(=O)[C@H](CCCN)NC(=O)[C@H](C(C)C)NC(=O)[C@@H]1CCCN1C(=O)[C@@H](Cc1ccccc1)NC(=O)[C@H](C(C)C)NC(=O)[C@H](CCCN)NC(=O)[C@H]([C@@H](C)O)NC2=O [Peptide 6] (T[Orn]V[dF]PV[Orn]V; linker N-C via X2) | 30.8 ± 15.0 µg/mL | 13.2 ± 13.3 µg/mL | 8.6 ± 0.0 µg/mL | 20.6 ± 1.7 µg/mL | 6.3 ± 2.3 µg/mL | 22.9 | – | –
Cc1sc2cc1C1=C(CCC1)c1cc(sc1C)C(=O)[C@@H]1CCCN1C(=O)[C@H](C(C)C)NC(=O)[C@H](CCCN)NC(=O)[C@H](C(C)C)NC(=O)[C@@H]1CCCN1C(=O)[C@@H](Cc1ccccc1)NC(=O)[C@H](C(C)C)NC(=O)[C@H](CCCN)NC(=O)[C@H](CC(=O)NC(C)C)NC2=O [Peptide 7] (D(NHiPr)[Orn]V[dF]PV[Orn]V; linker N-C via X2) | 15.9 ± 4.3 µg/mL | 8.7 ± 9.1 µg/mL | 5.8 ± 0.4 µg/mL | 18.2 ± 4.6 µg/mL | 3.0 ± 2.5 µg/mL | 45.9 | – | –
Cc1sc2cc1C1=C(CCC1)c1cc(sc1C)C(=O)[C@@H]1CCCN1C(=O)[C@H](C(C)C)NC(=O)[C@H](CCCN)NC(=O)[C@H](C(C)C)NC(=O)[C@@H]1CCCN1C(=O)[C@@H](Cc1ccccc1)NC(=O)[C@H](C(C)C)NC(=O)[C@H](CCCN)NC(=O)[C@H](CCNC(=O)C(C)C)NC2=O [Peptide 8] ([Dab](Isobutyryl)[Orn]V[dF]PV[Orn]V; linker N-C via X2) | 12.0 ± 0.8 µg/mL | 5.7 ± 0.4 µg/mL | 3.9 ± 1.5 µg/mL | 9.6 ± 5.6 µg/mL | 3.0 ± 2.7 µg/mL | 121 and 121.2 | – | –
CC[C@H](C)[C@@H]1NC(=O)c2cc(c(C)s2)C2=C(CCC2)c2cc(sc2C)C(=O)[C@@H]2CCCN2C(=O)[C@H](CC(C)C)NC(=O)[C@H](CCCN)NC(=O)[C@H]([C@@H](C)CC)NC(=O)[C@@H]2CCCN2C(=O)[C@H]2CCCN2C(=O)[C@H](CC(C)C)NC(=O)[C@H](CCCN)NC1=O [Peptide 9] (I[Orn]L[dP]PI[Orn]L; linker N-C via X2) | 2.0 ± 1.1 µg/mL | 2.1 ± 0.8 µg/mL | 1.6 ± 0.3 µg/mL | 2.2 ± 0.5 µg/mL | 0.8 ± 0.1 µg/mL | 5.7 | 9.1 ± 2.7 µg/mL | –
CC[C@H](C)[C@@H]1NC(=O)c2cc(c(C)s2)C2=C(CCC2)c2cc(sc2C)C(=O)[C@@H]2CCCN2C(=O)[C@H]([C@@H](C)CC)NC(=O)[C@H](CCCN)NC(=O)[C@H](CC(C)C)NC(=O)[C@H](CC(C)C)N(C)C(=O)[C@@H](Cc2ccccc2)NC(=O)[C@H]([C@@H](C)CC)NC(=O)[C@H](CCCN)NC1=O [Peptide 10] (I[Orn]I[dF][NMeL]L[Orn]I; linker N-C via X2) | 1.3 ± 1.5 µg/mL | 1.0 ± 0.6 µg/mL | 1.0 ± 0.6 µg/mL | 2.2 ± 1.0 µg/mL | 1.3 ± 1.5 µg/mL | 9.5 | 9.5 ± 0.1 µg/mL | –
Cc1sc2cc1C1=C(CCC1)c1cc(sc1C)C(=O)[C@@H]1CCCN1C(=O)[C@H](C(C)C)NC(=O)[C@H](CCCN)NC(=O)[C@H](C(C)C)NC(=O)[C@@H]1CCCN1C(=O)[C@@H](Cc1ccccc1)NC(=O)[C@H](C(C)C)NC(=O)[C@H](CCCN)NC(=O)[C@H]([C@H](O)C(C)C)NC2=O [Peptide 12] ([Leu(3R-OH)][Orn]V[dF]PV[Orn]V; linker N-C via X2) | 9.2 ± 1.1 µg/mL | 6.7 ± 0.4 µg/mL | 3.6 ± 0.5 µg/mL | 6.2 ± 0.0 µg/mL | 2.1 ± 1.0 µg/mL | 21.4 | 77.0 ± 19.4 µg/mL | –
Cc1sc2cc1C1=C(CCC1)c1cc(sc1C)C(=O)[C@@H]1CCCN1C(=O)[C@H](C(C)C)NC(=O)[C@H](CCCN)NC(=O)[C@H]([C@H](O)C(C)C)NC(=O)[C@@H]1CCCN1C(=O)[C@@H](Cc1ccccc1)NC(=O)[C@H](C(C)C)NC(=O)[C@H](CCCN)NC(=O)[C@H](C(C)C)NC2=O [Peptide 13] (V[Orn]V[dF]P[Leu(3R-OH)][Orn]V; linker N-C via X2) | 4.8 ± 3.8 µg/mL | 4.3 ± 3.8 µg/mL | 2.2 ± 1.0 µg/mL | 6.4 ± 0.4 µg/mL | 3.4 ± 0.5 µg/mL | 20.5 | – | 45.0^b µg/mL
